Source: patent US20050209157A1, “Short bioactive peptides and methods for their use” (priority 2001, published 2005)
Read-outs that look alike come from different tables or passages of the source. No end group written: not given here.

How the values were obtained:
[1] = tested on: Pseudomonas aeruginosa ATCC 9027; test: Antimicrobial assay I, MIC by OD measurement; type: cell-based; details: 37° C. for 24 hours, absorbance 620 nm
[2] = tested on: Staphylococcus aureus ATCC 6538; test: Antimicrobial assay I, MIC by OD measurement; type: cell-based; details: 37° C. for 24 hours, absorbance 620 nm
[3] = tested on: yeast (Saccharomyces cerevisiae); test: Antimicrobial assay I, yeast assay in RPMI 1640; type: cell-based; details: RPMI 1640 media
S. aureus (MRSA) = type: cell-based, Staphylococcus aureus; details: mean of three; 16 to 20 hours at 35° C.
S. epidermidis C621 = type: cell-based, Staphylococcus epidermidis; details: mean of three; 16 to 20 hours at 35° C.
S. pyogenes M76 = test: Antimicrobial assays II, NCCLS broth microdilution MIC; type: cell-based, Streptococcus pyogenes; details: mean of three; 16 to 20 hours at 35° C.
S. pyogenes ATCC19615 = test: as above; type: cell-based, Streptococcus pyogenes; details: mean of three, in µg/mL
S. pneumoniae C718 = test: as above; type: cell-based, Streptococcus pneumoniae; details: mean of three
S. pneumoniae C719 = test: as above; type: cell-based, Streptococcus pneumoniae; details: mean of three, in µg/mL
P. acne ATCC 6919 = test: as above; type: cell-based, Propionibacterium acnes; details: mean of three, in µg/mL
BMKC = test: Anti-cancer assay, MTT, LD50; type: cell-based; details: BMKC cloned melanoma line, 24 hours with peptide
Description: (§1) Numbers are LD50 values (μg/mL).

H1299 = test: Anti-cancer assay, MTT, LD50; type: cell-based; details: 24 hours with peptide, lung large cell carcinoma
Description: as §1

HeLaS3 = test: Anti-cancer assay, MTT, LD50; type: cell-based; details: 24 hours with peptide, cervical carcinoma
Description: as §1

MCF7 = test: Anti-cancer assay, MTT, LD50; type: cell-based; details: MCF7 breast adenocarcinoma line, MTT, 24 hours with peptide
Description: as §1

PC3 = test: Anti-cancer assay, MTT, LD50; type: cell-based; details: 24 hours with peptide, prostate adenocarcinoma
Description: as §1

SW480 = test: Anti-cancer assay, MTT, LD50; type: cell-based; details: SW480 colon adenocarcinoma line, 24 hours with peptide
Description: as §1

in vitro [4] = type: cell-based, human; details: human, human red blood cells, pH 7, hemolytic assay, concentration at 50% hemolysis, 1 hour at 37° C.; read-out: LD50
P. aeruginosa H374 = type: cell-based, Pseudomonas aeruginosa; details: for MIC Cm-comb.: MIC of chloramphenicol with peptide at ¼ MIC; for MIC Nal-comb.: MIC of nalidixic acid with peptide at ¼ MIC; for FIC Index: 0.5 or less = synergy
Procedure, shortened: (§2)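 Efflux-mutant strains were tested with two-fold serial dilutions of chloramphenicol or nalidixic acid, alone and with peptide held at ¼ of its own MIC.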

P. aeruginosa H774 = type: cell-based, Pseudomonas aeruginosa; details: P. aeruginosa H744; nalidixic acid + peptide at ¼ MIC; 0.5 or less = synergy
Procedure, shortened: as §2

P. aeruginosa = type: cell-based, Pseudomonas aeruginosa; details: P. aeruginosa H744; MIC of nalidixic acid with peptide at ¼ MIC
Procedure, shortened: as §2

WI38 = details: MTT, 24 hours with peptide; normal fibroblast line
in vitro [5] = details: human, WI38 normal lung fibroblast cells, LD50 WI38, WI38 normal lung fibroblast line, MTT, 24 hours with peptide
[6] = chloramphenicol + peptide at ¼ MIC
[7] = nalidixic acid + peptide at ¼ MIC, FIC=0.25+MIC comb/MIC alone

Substance	paerug9027 (MIC) [1]	staph6538 (MIC) [2]	yeast (MIC or MFC) [3]	S. aureus (MRSA) MIC (S. aureus (MRSA))	S. epidermidis C621 MIC (S. epidermidis C621)	S. pyogenes M76 MIC (S. pyogenes M76)	S. pyogenes MIC (S. pyogenes ATCC19615)	S. pneumoniae MIC (S. pneumoniae C718)	S. pneumoniae MIC (S. pneumoniae C719)	P. acne MIC (P. acne ATCC 6919)	LD50 BMKC (BMKC)	H1299 LD50 (H1299)	HeLaS3 LD50 (HeLaS3)	LD50 MCF7 (MCF7)	PC3 LD50 (PC3)	LD50 SW480 (SW480)	HC50 at 1 h (in vitro [4])	MIC Cm-comb. (P. aeruginosa H374)	MIC Nal-comb. (P. aeruginosa H374)	FIC Index (P. aeruginosa H374; [6])	other results
FAKFLAKFLKKAL-NH2 [P111, FAKFLAKFLKKAL-NH2]	100 µg/mL	5 µg/mL	200 µg/mL	8 µg/mL	4 µg/mL	4 µg/mL	2	16 µg/mL	4	4	26 µg/mL	8 µg/mL	7 µg/mL	35 µg/mL	11 µg/mL	27 µg/mL	60 µg/mL	16 µg/mL	2500 µg/mL	1.25	FIC Index (P. aeruginosa H374; [7]): 0.75; FIC Index (P. aeruginosa H774): 1.25; MIC Nal-comb. (P. aeruginosa): 624 µg/mL; WI38 LD50 (WI38): 24 µg/mL; CC50 at 24 h (in vitro [5]): 24 µg/mL
FAKKLAKLALKLAKL-NH2 [P44]	5 µg/mL	5 µg/mL	50 µg/mL	8 µg/mL	4 µg/mL	4 µg/mL	4	8 µg/mL	16	4	47 µg/mL	72 µg/mL	22 µg/mL	140 µg/mL	45 µg/mL	32 µg/mL	90 µg/mL	16 µg/mL	5000 µg/mL	1.25	FIC Index (P. aeruginosa H374; [7]): 1.25; FIC Index (P. aeruginosa H774): 1.25; MIC Nal-comb. (P. aeruginosa): 624 µg/mL; WI38 LD50 (WI38): 36 µg/mL; CC50 at 24 h (in vitro [5]): 36 µg/mL
FALALKALKKLAKKLKKLAKKAL-NH2 [P25]	5 µg/mL	10 µg/mL	25 µg/mL	16 µg/mL	4 µg/mL	8 µg/mL	8	64 µg/mL	8	2	36 µg/mL	37 µg/mL	20 µg/mL	10 µg/mL	12 µg/mL	12 µg/mL	16 µg/mL	4 µg/mL	2500 µg/mL	0.5	FIC Index (P. aeruginosa H374; [7]): 0.75; FIC Index (P. aeruginosa H774): 0.5; MIC Nal-comb. (P. aeruginosa): 156 µg/mL; WI38 LD50 (WI38): 24 µg/mL; CC50 at 24 h (in vitro [5]): 24 µg/mL
FAKLLAKLAKKVL-NH2 [P124]	100 µg/mL	5 µg/mL	100 µg/mL	8 µg/mL	4 µg/mL	16 µg/mL	16	> 128 µg/mL	64	8	10 µg/mL	30 µg/mL	14 µg/mL	18 µg/mL	10 µg/mL	9 µg/mL	55 µg/mL	16 µg/mL	2500 µg/mL	1.25	FIC Index (P. aeruginosa H374; [7]): 0.75; FIC Index (P. aeruginosa H774): 1.25; MIC Nal-comb. (P. aeruginosa): 624 µg/mL; WI38 LD50 (WI38): 21 µg/mL; CC50 at 24 h (in vitro [5]): 21 µg/mL
